The values that follow come from patent publication US11884956B2, “Methods for detecting mycobacteria with solvatochromic dye conjugates” (priority 2016, dated 2024).

For data set [1], the system named is Msmeg. Kind of data set: Flow cytometry of metabolically labeled Msmeg. The data set is classed as cell-based, Mycobacterium smegmatis. A general note: A flow cytometer gives signals particle by particle.
Data set [2] concerns Mycobacterium smegmatis (Msmeg). Put plainly: No-wash imaging of Msmeg by DMN-Tre and 6-FITre. The data set is classed as cell-based. As to conditions: 100 μM, 1 hour, imaged without washing; FIG. 9A.
Data set [3] concerns Mycobacterium marinum (Mm). Put plainly: No-wash imaging of M. marinum by DMN-Tre and 6-FITre. To be noted: 100 μM, 6 hours, imaged without washing; FIG. 9A. The data set is classed as cell-based.
Data set [4] concerns Corynebacterium glutamicum (Cg). Put plainly: No-wash imaging of Cg by DMN-Tre and 6-FITre. The class given is cell-based.
Data set [5] has as its system Mtb cells. Kind of data set: Labeling of drug-treated Mtb. The class given is cell-based, Mycobacterium tuberculosis. To be noted: drug cocktail 3 hours before staining; FIGS. 15C and 15D.
The subject of data set [6] is Mtb cells in TB-positive patient sputum samples. Put plainly: Microscopy analysis of Mtb in sputum samples / Auramine vs DMN-Tre smear test. The class given is cell-based, Mycobacterium tuberculosis. As to conditions: for detection of Mtb cells in split sputum samples: DMN-Tre 30 minutes or Auramine O standard kit protocol, FIGS. 17B-D.
Data set [7] deals with Escherichia coli (Ec). Kind of data set: Labeling of non-mycomembrane bearing bacteria (Ec). The data set is classed as cell-based. To be noted: 100 μM, 37° C., 2 h; FIG. 11A. The procedure: (§1) Lm, Bs, Ec, and Sa were grown from single colonies at 37° C. overnight. The bacteria were diluted to an OD600 of 0.4. To 1 mL aliquots of these bacteria, 10 μL of 10 mM DMN-Tre was added to reach a final concentration of 100 μM. The cells were then incubated at 37° C. for 2 h. Aliquots were taken and the cells were imaged under a coverslip. As controls, cells from the same OD600=0.4 culture, without the addition of DMN-Tre, were also imaged.

Data set [8] relates to Msmeg deficient in Ag85A. Kind of data set: DMN-Tre labeling of Msmeg deficient in Ag85A. The data set is classed as cell-based, Mycobacterium smegmatis. To be noted: FIG. 12F.
Data set [9] can be described thus: Stability of DMN-Tre. The class given is physicochemical. As to conditions: bench or shipping containers at room temperature; aqueous solution at 37° C.
Data set [10] concerns Cg. Kind of data set: No-wash labeling of Cg over time. The class given is cell-based, Corynebacterium glutamicum. To be noted: FIG. 10. The procedure:
(§2) Msmeg or Cg cells were grown to an OD600 of 0.5 from a single colony as above. To 200 μL of culture was added 2 μL of 10 mM DMN-Tre in H2O. Aliquots were taken from this culture at the indicated time points, immediately placed under a coverslip, and imaged.

Data set [11] concerns M. smegmatis. Kind of data set: Trehalose competition of DMN-Tre labeling in M. smegmatis. The data set is classed as cell-based, Mycobacterium smegmatis. To be noted: 1 hour, FIG. 12D. On the procedure: Then, the bacteria were divided into 100 μL aliquots. To these aliquots was added 1 μL of 10 mM DMN-Tre and 1 μL of 0, 10 or 100 mM trehalose in water.
In data set [12] the test system is Msmeg trehalose transporter mutants. The data set is classed as cell-based, Mycobacterium smegmatis. As to conditions: panel of trehalose transporter mutants.
The subject of data set [13] is Msmeg expressing mCherry. Kind of data set: Selective labeling of Msmeg in the presence of other bacterial species. The class given is cell-based, Mycobacterium smegmatis. As to conditions: 1:10 mycobacteria/other bacteria (Bs, Ec, Lm, Sa), Hoechst dye, one hour, no wash; FIG. 11B. On the procedure: Bacteria (Lm, Bs, Ec, and Sa) were grown overnight with shaking in media as noted above. The bacteria were diluted to OD600=0.5, then 500 μL of each culture were mixed together to create 2 mL of mixed bacteria. One mL of Msmeg expressing mCherry was grown from a single colony overnight to OD600 of 0.5. Both cultures were pelleted by centrifugation (3 min, 3,300×g) and resuspended in an identical volume of LB medium. To 540 μL of mix, 60 μL of Msmeg was added. Lastly, this final mixture of bacteria containing Msmeg and the four other non-mycomembrane bearing bacterial species was split into two 300 μL aliquots. To each group, 0.3 μL of 2 mg/mL Hoechst DNA stain (Thermo Fisher Scientific, 62249) was added to stain all the bacteria. To one of the two aliquots, 3 μL of 10 mM DMN-Tre were added, while no DMN-Tre was added to the other portion. The two aliquots were incubated with shaking at 37° C. for 1 h before a sample was taken out and imaged without washing.

The test system of data set [14] is Msmeg. Kind of data set: No-wash labeling of Msmeg over time. The class given is cell-based, Mycobacterium smegmatis. To be noted: FIG. 10. The procedure: as §2
The subject of data set [15] is Bacillus subtilis (Bs). Put plainly: Labeling of non-mycomembrane bearing bacteria (Bs). As to conditions: 100 μM, 37° C., 2 h; FIG. 11A. The data set is classed as cell-based. The procedure: as §1
In data set [16] the test system is Staphylococcus aureus (Sa). Put plainly: Labeling of non-mycomembrane bearing bacteria (Sa). The class given is cell-based. As to conditions: 100 μM, 37° C., 2 h; FIG. 11A. On the procedure:
as §1

Data set [17] relates to Listeria monocytogenes (Lm). Put plainly: Labeling of non-mycomembrane bearing bacteria (Lm). The data set is classed as cell-based. To be noted: 100 μM, 37° C., 2 h; FIG. 11A. On the procedure: as §1
A short description of data set [18]: Absorbance and fluorescence measurements of DMN-Tre. The class given is physicochemical. The procedure:
One μL of 10 mM DMN-Tre in H2O was added to 1 mL of mixtures of dioxane and water at different ratios. Absorbance spectra were recorded on a Varian Cary 50 UV-Visible spectrophotometer. Fluorescence spectra were recorded on a Photon Technology International Quanta Master 4 L-format scanning spectrofluorometer equipped with an LPS-220B 75-W xenon lamp and power supply, an A-1010B lamp housing with an integrated igniter, a switchable 814 photon counting/analog photomultiplier detection unit, and an MD5020 motor driver. Measurements were made in 1 cm×0.4 cm quartz cuvettes with a total sample volume of 1 mL.

Data set [19] has as its system Mtb (H37Rv). Put plainly: Axenic MTB culture time-course experiment. The class given is cell-based, Mycobacterium tuberculosis.
For data set [20], the system named is heat-killed Msmeg cells. Kind of data set: DMN-Tre labeling of heat-killed Msmeg. To be noted: FIGS. 13A and 13B.
The test system of data set [21] is wild-type Msmeg. Kind of data set: DMN-Tre labeling after isoniazid treatment, wild-type. The class given is cell-based, Mycobacterium smegmatis. As to conditions: FIG. 14C.
The subject of data set [22] is ΔkatG mutant of Msmeg. The data set is classed as cell-based, Mycobacterium smegmatis. As to conditions: FIG. 14C.
The mark [23] stands for this setting: 100 μM, 2 hours, imaged without washing, FIG. 9A.
Setting [24] is: 100 μM, exponential growth phase, first time point.

As to `COC1OC(CN2C(=O)c3cccc4c(N(C)C)ccc(c34)C2=O)C(O)C(O)C1O` (stereo not drawn) [DMN-Glc, DMN-glucose], the “labeling of Msmeg” value in data set [1] (FIG. 12C) is “did not label Msmeg”.

As to `O=C(O)c1cc(NC(=S)NC[C@H]2O[C@H](O[C@H]3O[C@H](CO)[C@@H](O)[C@H](O)[C@H]3O)[C@H](O)[C@@H](O)[C@@H]2O)ccc1-c1c2ccc(=O)cc-2oc2cc(O)ccc12` [6-FITre, 6-fluorescein-trehalose, reference compound], the “background fluorescence of free probe in surrounding solution” value in data set [2], in [3] and in [4] (setting [23]) was “obscured by fluorescence of the probe in the surrounding solution” each time.

As to `CN(C)c1ccc(C(=N)c2ccc(N(C)C)cc2)cc1.Cl` [Auramine O, reference compound], in [5], the “labeling after prior drug cocktail treatment” value was “unaffected”. Also, the “detection of Mtb cells in split sputum samples” value in data set [6] is recorded as “detected”.

Turning to `CN(C)c1ccc2c3c(cccc13)C(=O)N(C[C@H]1O[C@H](O[C@H]3O[C@H](CO)[C@@H](O)[C@H](O)[C@H]3O)[C@H](O)[C@@H](O)[C@@H]1O)C2=O` [DMN-Tre, 4-N,N-dimethylamino-1,8-naphthalimide-conjugated trehalose], the “background fluorescence of free probe in surrounding solution” value in data set [2], in data set [3] and in [4] (setting [23]) was “no discernible background fluorescence” throughout. The “fluorescence labeling, no-wash imaging” value in [2], in data set [3] and in data set [4] (setting [23]) was “Bright fluorescence labeling” each time. Also, the “fluorescence labeling without washing” value in [7], in [15], in [16] and in [17] was “none of the non-mycobacterial strains show any detectable fluorescence labeling” in each case. Further, in [5], the “labeling after prior drug cocktail treatment” value is “inhibited”. Besides, the “DMN-Tre labeling versus wild-type” value in data set [8] is reported as “reduced labeling compared to wild-type”. The stability entry in data set [9] was “very stable on the bench or in shipping containers for weeks at room temperature, and even in aqueous solution at 37 °C”. In addition, the figures for the “time point at which labeling was already visible” value in data set [10] (setting [24]) and in data set [14] (setting [24]) were at most 3 min and at most 5 min, respectively. For the same molecule, the “labeling pattern at earliest time point” value was “even cell surface labeling” in data set [10] (earliest time point) and “fluorescence only at the polar regions” in data set [14] (earliest time point). The “DMN-Tre labeling in the presence of excess trehalose” value in [11] is given as “reduced”. Besides, the “DMN-Tre incorporation versus wild-type” value in [12] is recorded as “comparable to wild-type”. In addition, in data set [6], the “time to detection of mycobacteria in TB patient sputum samples” value is reported as “under an hour”. In addition, the “fluorescent Mtb cells in sputum samples” value in data set [6] (16 treatment-naïve TB-positive patients, 2-hour incubation, FIGS. 17A and D) is “readily visible in all samples”. The “detection of Mtb cells in split sputum samples” value in [6] is listed as “detected”. In addition, the “Mtb cells detected in sputum compared with Auramine O” value in [6] (visibly stained cells over 8 fields of view per sample, 16 sputum samples, FIG. 17C) is listed as “performed similarly to Auramine O”. In [13], the “labeling in mixed bacterial culture” value is “Bright, specific, DMN-Tre labeling of only Msmeg cells”. In addition, the “time by which cells were uniformly labeled” value in data set [14] was at most 1 h. Also, the “fluorescence signal of labeled cells by filter set” value in [1] (100 μM DMN-Tre, 1 h, excited at wavelengths closer to 400 nm (405 nm vs 488 nm excitation), FIG. 9B) was “higher fluorescence signal over control samples”. Besides, in data set [1] (flow cytometry, FIG. 12A), the “time to significant fluorescence over background” value is at most 20 min. In addition, the cells labeled is over 70% in data set [1] (within 30 minutes, flow cytometry, FIG. 12B) and over 65% in data set [19] (liquid cultures, within 30 minutes, FIG. 15B). Moreover, the “enhancement in fluorescence intensity when dissolved in organic solvent versus water” value in data set [18] was about 700 fold. Further, the “labeling of liquid cultures” value in data set [19] (FIG. 15A) is listed as “visibly labeled”. Further, the labeling over time entry in data set [19] (overnight (˜16 h), FIG. 15B) is “continued to intensify overnight”. The “labeling after heat killing” value in data set [20] is listed as “abrogated”. Besides, the “fluorescence labeling in the selectivity experiment” value in [4] (same experiment as the non-mycobacterial strains, FIG. 11A) was “labeled brightly”.

Take `NNC(=O)c1ccncc1` [isoniazid]: the “effect of isoniazid treatment on DMN-Tre labeling” value in data set [21] is on record as “not wild-type Msmeg, was unaffected”; in [22], “unaffected”.
